Assay results: paper PMC7558026, “Exploring and applying the substrate promiscuity of a C-glycosyltransferase in the chemo-enzymatic synthesis of bioactive C-glycosides” (Nature Communications, 2020)
“And” between values parts separate entries of the source, which are not always exact repeats. Identical values can stand only once. “Also recorded” adds a separate entry of the source. Blank lines part the entries; values can stand above or below the compound they belong to.

Key:
SGLT1 = biological target: T1, SGLT1 (Homo sapiens, UniProt P13866); test: 1-NBDG uptake in HEK293 cells stably expressing SGLT1; format: cell-based; details: HEK293, compound at 10 μM; triplicate; read-out: SGLT1 inhibitory rates
T1 construct: The full-length SGLT1 cDNA was obtained by PCR with forward primer; expressed in transfected cells
T1 sequence (P13866 1-664): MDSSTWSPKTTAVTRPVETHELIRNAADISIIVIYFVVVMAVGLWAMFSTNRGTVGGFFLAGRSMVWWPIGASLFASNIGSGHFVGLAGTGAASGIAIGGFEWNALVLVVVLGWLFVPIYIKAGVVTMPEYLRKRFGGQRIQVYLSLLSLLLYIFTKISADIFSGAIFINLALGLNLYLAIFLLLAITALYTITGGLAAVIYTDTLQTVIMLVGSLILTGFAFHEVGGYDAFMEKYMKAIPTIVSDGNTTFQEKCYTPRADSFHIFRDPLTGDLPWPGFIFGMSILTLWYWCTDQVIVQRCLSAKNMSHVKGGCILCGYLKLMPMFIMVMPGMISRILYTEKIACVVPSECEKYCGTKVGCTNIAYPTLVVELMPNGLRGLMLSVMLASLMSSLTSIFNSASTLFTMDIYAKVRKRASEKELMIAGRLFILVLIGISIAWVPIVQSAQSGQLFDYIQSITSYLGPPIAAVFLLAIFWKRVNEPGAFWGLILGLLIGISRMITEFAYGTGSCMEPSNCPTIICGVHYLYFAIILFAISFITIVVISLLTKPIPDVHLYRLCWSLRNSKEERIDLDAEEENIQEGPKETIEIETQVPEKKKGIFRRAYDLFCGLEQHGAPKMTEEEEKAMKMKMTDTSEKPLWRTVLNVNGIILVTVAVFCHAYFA

SGLT2 = biological target: T2, SGLT2 (Homo sapiens, UniProt P31639); test: 1-NBDG uptake in HEK293 cells stably expressing SGLT2; format: cell-based
T2 construct: Human full-length SGLT2 cDNA (NM_003041.3) was synthesized; expressed in transfected cells; host or cells: HEK293, retroviral transduction with pMSCVpuro-SGLT2, puromycin selected
T2 sequence (P31639 1-672): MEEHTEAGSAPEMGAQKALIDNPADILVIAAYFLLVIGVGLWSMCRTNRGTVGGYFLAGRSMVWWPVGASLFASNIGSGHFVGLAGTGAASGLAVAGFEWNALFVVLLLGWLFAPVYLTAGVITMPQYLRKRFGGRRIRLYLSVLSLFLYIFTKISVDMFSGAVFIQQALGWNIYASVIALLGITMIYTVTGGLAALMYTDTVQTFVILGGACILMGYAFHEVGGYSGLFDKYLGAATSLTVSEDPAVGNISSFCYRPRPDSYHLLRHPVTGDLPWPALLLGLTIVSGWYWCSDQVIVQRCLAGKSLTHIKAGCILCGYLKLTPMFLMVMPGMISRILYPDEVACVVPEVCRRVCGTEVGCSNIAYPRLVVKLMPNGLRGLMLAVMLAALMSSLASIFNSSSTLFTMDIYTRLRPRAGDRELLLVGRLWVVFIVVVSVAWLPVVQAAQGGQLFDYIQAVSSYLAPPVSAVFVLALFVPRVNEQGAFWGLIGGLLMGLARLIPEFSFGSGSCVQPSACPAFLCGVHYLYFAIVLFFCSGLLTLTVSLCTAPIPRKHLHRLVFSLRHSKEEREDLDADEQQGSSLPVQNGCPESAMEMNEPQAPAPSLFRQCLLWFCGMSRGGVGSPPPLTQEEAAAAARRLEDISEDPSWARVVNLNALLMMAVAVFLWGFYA

alloxan-induced DM mice = test: Hypoglycemic effect in alloxan-induced diabetic mellitus (DM) mice; format: in vivo; details: for OD505nm (nonfasting blood glucose): individual mice
Method: Type 1 diabetes mellitus (T1DM) mice were established by intravenous injection of alloxan tetrahydrate (68 mg kg^‒1 BW). […] Nonfasting blood glucose was kinetically monitored at 1, 2, 4, 6, 8, 24, and 48 h after treatment with 46a.

ICR mice = test: Oral glucose-tolerance test (OGTT) in normal ICR mice; format: in vivo; details: for OD505nm (blood glucose, GOD assay) in OGTT: individual mice
Method: The hypoglycemic effect of 46a was firstly evaluated by oral glucose-tolerance test (OGTT) in mice with normal blood glucose levels. Male Institute of Cancer Research (ICR) mice weighing 24–26 g were obtained from Beijing Vital River Laboratory Animal Technology Co., Ltd (Beijing, China) and divided into three groups (n = 7–8). […] After 2 h of fasting, blood samples were collected from the tails for determination of baseline values of blood glucose (0 min). The mice were then orally administered glucose (2 g kg^‒1 BW), and blood samples were collected at 15, 30, 60, and 120 min. A glucose oxidase (GOD) assay was used for blood glucose-level measurement. The values of area under the glucose-time curve (AUC) were calculated.

KKAy mice [1] = test: Hypoglycemic effect in T2DM KKAy mice, blood glucose; format: in vivo; details: for blood glucose: individual mice
Method: (§1) To evaluate the hypoglycemic effect of 46a in type 2 diabetes mellitus (T2DM), female KKAy mice weighing 42–48 g were obtained from the Animal Center of the Institute of Laboratory Animal Sciences, Chinese Academy of Medical Sciences and Peking Union Medical College. […] Blood samples were collected at 1, 2, 4, 6, 8, 24, and 48 h after treatment. […] The glucose levels in urine 4 h and 6 h after administration were also determined using a Biosen C-Line Glucose analyzer (EKF Diagnostics, Germany).

KKAy mice [2] = test: Urinary glucose excretion in T2DM KKAy mice; format: in vivo; details: for glucose in urine: 46a 100 mg kg^‒1 or dapagliflozin 5mg/kg, individual mice
Method: as §1

AbCGT = AbCGT (Aloe vera, UniProt A0A7G9P699); test: Sugar donor promiscuity of AbCGT with phloretin (17) as acceptor; format: biochemical, Aloe barbadensis; details: sugar donor with phloretin (17) as acceptor; Reaction-1 to -3
Sequence of AbCGT (A0A7G9P699 entry or part of it): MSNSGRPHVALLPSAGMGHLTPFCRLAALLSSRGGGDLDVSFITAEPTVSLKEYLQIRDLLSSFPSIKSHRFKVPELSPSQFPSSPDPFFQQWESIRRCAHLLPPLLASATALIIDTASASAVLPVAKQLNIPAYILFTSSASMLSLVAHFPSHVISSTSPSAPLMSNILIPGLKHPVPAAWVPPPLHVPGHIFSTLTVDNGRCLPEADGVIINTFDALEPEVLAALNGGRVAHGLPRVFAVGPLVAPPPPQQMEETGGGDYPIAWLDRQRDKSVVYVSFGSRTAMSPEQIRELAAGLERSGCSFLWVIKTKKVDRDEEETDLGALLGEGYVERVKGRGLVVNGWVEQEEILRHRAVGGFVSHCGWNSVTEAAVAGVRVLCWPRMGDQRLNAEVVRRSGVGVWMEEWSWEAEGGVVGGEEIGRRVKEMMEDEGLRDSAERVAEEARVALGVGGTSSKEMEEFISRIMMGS
Method: The reaction mixture contained 0.5 mM sugar donors (1.0 mM for di-glycosylation), 0.25 mM aglycons, 50 mM Tris-HCl (pH 7.4), and 50‒100 μg of purified AbCGT in a final volume of 100 μL. Due to the instability of some acceptors in the buffer of pH 11.0, the reactions were performed under the physiological conditions (pH 7.4, 30 °C) to compare the catalytic activities of AbGT27 with different substrates under the same conditions. The reactions were performed at 30 °C for up to 12 h and terminated by the addition of 200 μL of ice-cold methanol. Subsequently, samples were centrifuged at 15,000 × g for 30 min to collect the supernatant, and aliquots were analyzed by HPLC-UV/ESIMS. HPLC analysis was performed on a Shiseido CAPCELL PAK C18 MG III column (250 mm × 4.6 mm I.D., 5 μm, Shiseido Co., Ltd., Japan) at a flow rate of 1 mL min^‒1. The mobile phase was a gradient elution of solvents A (0.1% formic acid aqueous solution) and B (methanol). The gradient programs were used for the analysis of the reactions (Supplementary Table 6). The conversion rates of the enzyme reactions were calculated from peak areas of glycosylated products and substrates as analyzed by HPLC. To facilitate inferential statistical analysis, three parallel assays were routinely performed; the means ± SD from triplicate analyses are reported here.

inhibition at 10 µM (SGLT1): 50.4%
inhibition at 10 µM (SGLT2; HEK293, compound at 10 μM, triplicate, read-out: SGLT2 inhibitory rates): > 96%
SGLT2 inhibitory rates (SGLT2; compound at 10 μM, triplicate, 10 µM): 100%
increase of SGLT2 inhibitory activity compared to the unsubstituted glycoside 38a (SGLT2; from IC50 values, 46a vs 38a): more than 17 times
Structure (SMILES): Cc1ccc(Cc2c(O)cc(O)c(C3OC(CO)C(O)C(O)C3O)c2O)cc1 (stereo not drawn) [Compound 46a]
OD505nm (nonfasting blood glucose) (alloxan-induced DM mice; 0h, alloxan-induced DM mice, single dose 46a 100 mg kg^‒1 or dapagliflozin 5 mg kg^‒1): 0.431 and 0.458 and 0.49 and 0.52 and 0.521 and 0.444 and 0.562 and 0.464
OD505nm (nonfasting blood glucose) (alloxan-induced DM mice; 1h, same doses): 0.26 and 0.308 (2×) and 0.339 and 0.305 and 0.23 and 0.256 and 0.248
OD505nm (nonfasting blood glucose) (alloxan-induced DM mice; 2h, same doses): 0.231 and 0.293 and 0.455 and 0.311 and 0.26 and 0.191 and 0.29 and 0.211
OD505nm (nonfasting blood glucose) (alloxan-induced DM mice; 4h, same doses): 0.321 and 0.404 and 0.412 and 0.349 and 0.326 and 0.246 and 0.294 and 0.251
OD505nm (nonfasting blood glucose) (alloxan-induced DM mice; 8h, same doses): 0.424 and 0.434 and 0.432 and 0.559 and 0.489 and 0.42 and 0.457 and 0.316
OD505nm (nonfasting blood glucose) (alloxan-induced DM mice; 24h, same doses): 0.5 and 0.59 and 0.679 and 0.688 and 0.606 and 0.51 and 0.507 and 0.483
OD505nm (nonfasting blood glucose) (alloxan-induced DM mice; 48h, same doses): 0.317 and 0.566 and 0.646 and 0.639 and 0.631 and 0.47 and 0.542 and 0.494
hypoglycemic activity (in words) (alloxan-induced DM mice; alloxan-induced DM mice, oral single administration): exhibited obviously hypoglycemic activity
OD505nm (blood glucose, GOD assay) in OGTT (ICR mice; 0 min, ICR mice, oral 46a 100 mg kg^‒1 or dapagliflozin 5 mg kg^‒1): 0.153 and 0.163 and 0.176 and 0.168 and 0.167 and 0.175 and 0.178
OD505nm (blood glucose, GOD assay) in OGTT (ICR mice; 15 min after glucose 2 g kg^‒1, oral 46a 100 mg kg^‒1 or dapagliflozin 5 mg kg^‒1): 0.178 and 0.123 and 0.205 and 0.183 and 0.193 and 0.203 and 0.189
OD505nm (blood glucose, GOD assay) in OGTT (ICR mice; 30 min after glucose, same doses): 0.183 and 0.213 and 0.193 and 0.202 and 0.218 and 0.205 and 0.211
OD505nm (blood glucose, GOD assay) in OGTT (ICR mice; 60 min after glucose, same doses): 0.19 (2×) and 0.208 and 0.2 and 0.178 and 0.187 and 0.202
OD505nm (blood glucose, GOD assay) in OGTT (ICR mice; 120 min after glucose, same doses): 0.169 and 0.181 and 0.185 and 0.187 and 0.178 (2×) and 0.207
blood glucose after glucose loading / glucose tolerance (in words) (ICR mice; ICR mice, 100 mg kg^‒1 46a oral): significantly lowered the peak value of blood glucose after glucose loading; also recorded: enhanced glucose tolerance
blood glucose (KKAy mice [1]; 0h, KKAy mice, single dose 46a 100 mg kg^‒1 or dapagliflozin 5 mg kg^‒1): 391.7 mg/dL and 463.4 mg/dL and 285.8 mg/dL and 498.6 mg/dL and 457.9 mg/dL and 376.2 mg/dL and 436.2 mg/dL
blood glucose (KKAy mice [1]; 1h, same doses): 205.3 mg/dL and 315 mg/dL and 262 mg/dL and 341.1 mg/dL and 283 mg/dL and 307.9 mg/dL and 329 mg/dL
blood glucose (KKAy mice [1]; 2h, same doses): 212.4 mg/dL and 285.2 mg/dL and 250.2 mg/dL and 371.1 mg/dL and 288 mg/dL and 260.7 mg/dL and 328.6 mg/dL
blood glucose (KKAy mice [1]; 4h, same doses): 205.2 mg/dL and 255.5 mg/dL and 229.1 mg/dL and 299.5 mg/dL and 368.8 mg/dL and 243.8 mg/dL and 201.2 mg/dL
blood glucose (KKAy mice [1]; 6h, same doses): 206.4 mg/dL and 242.8 mg/dL and 220.9 mg/dL and 332.5 mg/dL and 314.8 mg/dL and 301 mg/dL and 171 mg/dL
blood glucose (KKAy mice [1]; 8h, same doses): 215.9 mg/dL and 255.1 mg/dL and 195.2 mg/dL and 297 mg/dL and 255.7 mg/dL and 245.8 mg/dL and 197.4 mg/dL
blood glucose (KKAy mice [1]; 24h, same doses): 269.1 mg/dL and 338.2 mg/dL and 240.2 mg/dL and 308.3 mg/dL and 291.4 mg/dL and 330 mg/dL and 166.4 mg/dL
blood glucose (KKAy mice [1]; 48h, same doses): 250.5 mg/dL and 412.5 mg/dL and 265.3 mg/dL and 242.5 mg/dL and 425.9 mg/dL and 396 mg/dL and 189.5 mg/dL
blood glucose level (in words) (KKAy mice [1]; KKAy mice, single administration, vs control (solvent-treated) group): decreased at 1 h after 46a administration and was maintained at a lower level for 24 h; also recorded: lowered the blood glucose
glucose in urine (KKAy mice [2]; 4h): 11366 mg/dL and 12692 mg/dL and 12124 mg/dL
glucose in urine (KKAy mice [2]; 6h): 8584 mg/dL and 12278 mg/dL and 11404 mg/dL and 9012 mg/dL
urinary glucose excretion (in words) (KKAy mice [2]; single administration): elevated urinary glucose excretion; also recorded: promoted urinary glucose excretion

conversion rates, O,N,S-glycosylation (AbCGT): 0%
conversion rates, di-C-glycosylation (AbCGT): 0%
conversion rates, mono-C-glycosylation (AbCGT): 4.8% and 5.3%
Structure (SMILES): O=C(O)C1OC(OP(=O)(O)OP(=O)(O)OCC2OC(n3ccc(=O)[nH]c3=O)C(O)C2O)C(O)C(O)C1O [e, UDP-α-D-glucuronic acid]

conversion rates, O,N,S-glycosylation (AbCGT): 0%
conversion rates, di-C-glycosylation (AbCGT): 0%
conversion rates, mono-C-glycosylation (AbCGT): 0%
Structure (SMILES): CC(=O)NC1C(OP(=O)(O)OP(=O)(O)OCC2OC(n3ccc(=O)[nH]c3=O)C(O)C2O)OC(CO)C(O)C1O (stereo not drawn) [f]
